Reference: BindingDB's records for doi:10.1021/jm00091a008 (Alter, 1992)

Target: Voltage-dependent L-type calcium channel subunit alpha-1C (Oryctolagus cuniculus, UniProt P15381)
Assay: ChEBML_164619
From the text: Blockade of calcium-evoked contractions in depolarized aortic strips

Voltage-dependent L-type calcium channel subunit alpha-1C, sequence (P15381 whole entry): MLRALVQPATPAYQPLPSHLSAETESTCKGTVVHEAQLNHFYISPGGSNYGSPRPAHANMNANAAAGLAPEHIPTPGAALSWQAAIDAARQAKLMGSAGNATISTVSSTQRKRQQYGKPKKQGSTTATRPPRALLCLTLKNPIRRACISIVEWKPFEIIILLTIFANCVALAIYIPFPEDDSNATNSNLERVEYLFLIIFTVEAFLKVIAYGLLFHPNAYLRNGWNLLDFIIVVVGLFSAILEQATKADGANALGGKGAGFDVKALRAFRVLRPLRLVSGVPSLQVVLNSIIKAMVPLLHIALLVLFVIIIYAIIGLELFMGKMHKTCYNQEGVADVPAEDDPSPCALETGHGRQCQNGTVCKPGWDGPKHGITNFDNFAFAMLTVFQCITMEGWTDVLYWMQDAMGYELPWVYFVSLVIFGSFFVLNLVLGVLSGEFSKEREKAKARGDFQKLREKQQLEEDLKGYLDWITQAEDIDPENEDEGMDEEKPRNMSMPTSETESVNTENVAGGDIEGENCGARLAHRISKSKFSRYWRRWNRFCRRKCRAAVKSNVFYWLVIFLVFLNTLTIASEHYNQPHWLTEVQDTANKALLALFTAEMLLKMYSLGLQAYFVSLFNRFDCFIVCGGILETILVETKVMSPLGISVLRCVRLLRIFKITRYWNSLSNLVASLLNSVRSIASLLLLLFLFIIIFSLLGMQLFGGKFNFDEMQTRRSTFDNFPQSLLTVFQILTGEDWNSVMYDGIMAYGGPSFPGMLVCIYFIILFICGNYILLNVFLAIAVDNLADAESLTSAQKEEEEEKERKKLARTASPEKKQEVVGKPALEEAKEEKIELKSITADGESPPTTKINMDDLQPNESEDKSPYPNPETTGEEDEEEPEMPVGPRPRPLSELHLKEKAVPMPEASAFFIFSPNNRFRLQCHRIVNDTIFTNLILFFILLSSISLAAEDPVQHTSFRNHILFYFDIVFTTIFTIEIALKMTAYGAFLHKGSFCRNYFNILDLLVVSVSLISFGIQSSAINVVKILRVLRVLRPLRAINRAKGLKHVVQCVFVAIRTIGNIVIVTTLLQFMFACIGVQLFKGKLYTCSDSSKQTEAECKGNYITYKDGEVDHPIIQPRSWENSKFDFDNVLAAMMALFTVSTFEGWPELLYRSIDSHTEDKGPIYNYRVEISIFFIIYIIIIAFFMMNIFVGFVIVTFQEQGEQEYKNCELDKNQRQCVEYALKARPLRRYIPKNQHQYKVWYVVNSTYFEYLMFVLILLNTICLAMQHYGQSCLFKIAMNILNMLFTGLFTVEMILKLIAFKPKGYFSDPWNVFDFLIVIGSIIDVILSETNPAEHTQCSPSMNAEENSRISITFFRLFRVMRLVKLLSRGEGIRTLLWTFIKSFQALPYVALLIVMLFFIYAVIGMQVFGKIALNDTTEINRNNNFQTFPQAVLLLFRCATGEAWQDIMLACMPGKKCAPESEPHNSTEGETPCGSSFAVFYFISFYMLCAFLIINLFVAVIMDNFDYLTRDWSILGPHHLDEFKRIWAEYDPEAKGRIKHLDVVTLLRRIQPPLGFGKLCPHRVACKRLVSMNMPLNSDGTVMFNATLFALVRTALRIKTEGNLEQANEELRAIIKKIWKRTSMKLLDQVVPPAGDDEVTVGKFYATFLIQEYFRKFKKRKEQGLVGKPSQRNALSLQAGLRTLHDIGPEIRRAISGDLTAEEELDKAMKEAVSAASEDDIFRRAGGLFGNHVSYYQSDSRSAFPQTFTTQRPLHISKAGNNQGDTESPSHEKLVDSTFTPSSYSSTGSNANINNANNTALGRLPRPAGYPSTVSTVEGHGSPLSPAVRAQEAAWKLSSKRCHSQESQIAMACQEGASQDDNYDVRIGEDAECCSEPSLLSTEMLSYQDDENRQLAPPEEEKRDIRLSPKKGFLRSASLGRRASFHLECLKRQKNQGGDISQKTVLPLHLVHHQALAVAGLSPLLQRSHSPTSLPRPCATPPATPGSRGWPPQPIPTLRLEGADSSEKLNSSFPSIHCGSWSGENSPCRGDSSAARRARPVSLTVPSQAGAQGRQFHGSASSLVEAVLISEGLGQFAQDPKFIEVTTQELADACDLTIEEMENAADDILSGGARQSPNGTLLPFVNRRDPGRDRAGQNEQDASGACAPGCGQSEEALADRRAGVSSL

| SMILES | IC50 |
| --- | --- |
| COCCOC(=O)C1C(C)=NC(C)=C(C(=O)OCN2C(=O)c3ccccc3S2(=O)=O)C1c1cccc(Cl)c1Cl (centres undefined) | 2.9 nM |
| CC1=NC(C)=C(C(=O)OCC2CCCCO2)C(c2ccccc2[N+](=O)[O-])C1=C(O)OCN1C(=O)c2ccccc2S1(=O)=O (centres undefined) | 25 nM |
| COC(=O)C1C(C)=NC(C)=C(C(=O)OCN2C(=O)c3ccccc3S2(=O)=O)C1c1cccc(Cl)c1Cl (centres undefined) | 5.1 nM |
| CC1=NC(C)=C(C(=O)OCC2CCCO2)C(c2cccc([N+](=O)[O-])c2)C1=C(O)OCN1C(=O)c2ccccc2S1(=O)=O (centres undefined) | 25 nM |
